Measured values published in patent publication US20150209366A1, “COMBINATION OF A MACROCYCLIC PROTEASE INHIBITOR OF HCV, A NON-NUCLEOSIDE HCV INHIBITOR AND RITONAVIR” (Janssen Pharmaceuticals, Inc., priority 2012, published 2015).

Legend:
[1] = Pharmacokinetics of compound (I), alone versus in combination with (III) and ritonavir, healthy subjects; type: in vivo, human; conditions: geometric mean; for Cmax / AUC(0-t): human, in vivo; for AUC(0-t): read-out: AUC24 h
Protocol: The pharmacokinetic variables for the compound of formula (I) and (III) administered alone where compared when they were co-administered in a combination of (I), (II) and (III). All tables indicate Geometric mean (CV %) pharmacokinetic parameters and might be the result of multiple studies. The compounds are indicated by their respective numbers (I, II or III) in the tables below. A comparison is made between administration of compound of Formula (I) 150 mg alone versus 300 mg compound of formula (III) in combination with 50 mg of compound of Formula (I) and 20 mg of Ritonavir (compound of Formula (II) according to the following protocol. • 150 mg qd (I) given for 14 days to 10 healthy subjects • Washout of 14 days • 50 mg qd (I), 300 mg qd (III), 20 mg qd ritonavir (II) given for 14 days to the same 10 healthy volunteers.

[2] = Pharmacokinetics of compound (III), alone versus in combination with (I) and ritonavir; type: in vivo, human; conditions: geometric mean (CV%); for Cmax / AUC(0-t): human, in vivo; for AUC(0-t): read-out: AUC24 h
Protocol: The pharmacokinetic variables for the compound of formula (I) and (III) administered alone where compared when they were co-administered in a combination of (I), (II) and (III). All tables indicate Geometric mean (CV %) pharmacokinetic parameters and might be the result of multiple studies. The compounds are indicated by their respective numbers (I, II or III) in the tables below. A comparison is made between an administration of compound of Formula (III) 1000 mg alone, versus 300 mg compound of formula (III) in combination with 50 mg of compound of Formula (I) and 20 mg of Ritonavir (compound of Formula (II). The results are indicated in table 2 below.

[3] = 50 mg (I) + 300 mg (III) + 20 mg RTV qd for 14 days, same 10 healthy volunteers
[4] = (I) alone, 150 mg qd for 14 days, 10 healthy subjects
[5] = 300 mg (III) + 50 mg (I) + 20 mg (II) qd

Row | SMILES | Cmin [1, 3] | Cmin [1, 4] | Cmax [1, 3] | AUC(0-t) [1, 3] | Cmax [1, 4] | AUC(0-t) [1, 4] | Cmin [2, 5] | Cmin ([2]; (III) alone, 1000 mg bid) | Cmax [2, 5] | AUC(0-t) [2, 5] | Cmax ([2]; (III) alone, 1000 mg bid) | AUC(0-t) ([2]; (III) alone, 1000 mg bid)
1 | COc1ccc2c(O[C@@H]3C[C@H]4C(=O)N[C@]5(C(=O)NS(=O)(=O)C6CC6)C[C@H]5/C=C\CCCCN(C)C(=O)[C@@H]4C3)cc(-c3nc(C(C)C)cs3)nc2c1C [I, (1R,4R,6S,15R,17R)-cis-N-[17-[2-(4-isopropylthiazole-2-yl)-7-methoxy-8-methylquinolin-4-yloxy]-13-methyl-2,14-dioxo-3,13-diazatricyclo[13.3.0.0^4,6]octadec-7-ene-4-carbonyl]-(cyclopropyl)sulfonamide] | 375 ng/mL | 1405 ng/mL | 1460 ng/mL | 20000 ng·h/mL | 4750 ng/mL | 71200 ng·h/mL | – | – | – | – | – | –
2 | COc1ccc2c(c1)C=C1Cn3c-2c(C2CCCCC2)c2ccc(cc23)C(=O)NS(=O)(=O)N(C)CCOCCN(C)C1=O [III] | – | – | – | – | – | – | 0.21 (86%) μg/ml | 0.16 (42%) μg/ml | 6570 ng/mL | 52200 ng·h/mL | 5220 ng/mL | 40100 ng·h/mL
